Test results reported in patent US7041687B2, “Indazole compounds useful as protein kinase inhibitors” (Vertex Pharmaceuticals Incorporated, priority 2002, dated 2006).
Where “and” joins values, the source holds several entries; their conditions need not be identical. Equal entries are not always repeated.

Key:
Assay type in all cases: biochemical
[1] = target: PKA (Homo sapiens, UniProt P17612); experiment: PKA inhibition assay (standard coupled enzyme assay); conditions: 50 μM ATP, 80 μM Kemptide, 18 nM PKA, 30° C.
How it was run: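 Coupled PK/LDH assay (NADH read) with 18 nM PKA, 50 μM ATP and 80 μM Kemptide in 100 mM HEPES 7.5, 10 mM MgCl2, 3% DMSO at 30 °C. Compound dilutions (typically from 5 μM final) preincubated 10 min before ATP start; initial rates over 15 min gave IC50 and Ki by non-linear regression.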

[2] = target: T1, PDK-1 (Homo sapiens, UniProt O15530); experiment: PDK-1 inhibition assay (radioactive-phosphate incorporation); conditions: 40 μM ATP, 65 μM PDKtide, 25 nM PDK-1, 30° C.
T1 sequence (O15530 1-556): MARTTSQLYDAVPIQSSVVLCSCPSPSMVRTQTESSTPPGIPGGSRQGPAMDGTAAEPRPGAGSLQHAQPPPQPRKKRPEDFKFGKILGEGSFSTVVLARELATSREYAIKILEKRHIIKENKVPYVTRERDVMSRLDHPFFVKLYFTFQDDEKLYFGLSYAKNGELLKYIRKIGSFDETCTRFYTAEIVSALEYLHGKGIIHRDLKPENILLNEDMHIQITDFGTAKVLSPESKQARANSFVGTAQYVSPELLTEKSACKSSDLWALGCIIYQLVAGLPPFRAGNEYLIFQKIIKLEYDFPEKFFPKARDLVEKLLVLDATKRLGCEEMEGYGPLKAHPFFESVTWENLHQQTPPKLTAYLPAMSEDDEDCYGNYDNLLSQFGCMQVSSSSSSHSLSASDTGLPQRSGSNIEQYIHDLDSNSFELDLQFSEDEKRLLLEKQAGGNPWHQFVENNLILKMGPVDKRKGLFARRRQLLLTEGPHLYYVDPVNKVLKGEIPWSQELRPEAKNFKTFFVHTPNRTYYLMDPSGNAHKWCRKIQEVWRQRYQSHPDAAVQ

[3] = target: AKT-3 (Homo sapiens, UniProt Q9Y243); experiment: AKT-3 inhibition assay (standard coupled enzyme assay); conditions: 170 μM ATP, 200 μM peptide, 45 nM AKT, 30° C.
Chain of AKT-3 (Q9Y243 whole entry): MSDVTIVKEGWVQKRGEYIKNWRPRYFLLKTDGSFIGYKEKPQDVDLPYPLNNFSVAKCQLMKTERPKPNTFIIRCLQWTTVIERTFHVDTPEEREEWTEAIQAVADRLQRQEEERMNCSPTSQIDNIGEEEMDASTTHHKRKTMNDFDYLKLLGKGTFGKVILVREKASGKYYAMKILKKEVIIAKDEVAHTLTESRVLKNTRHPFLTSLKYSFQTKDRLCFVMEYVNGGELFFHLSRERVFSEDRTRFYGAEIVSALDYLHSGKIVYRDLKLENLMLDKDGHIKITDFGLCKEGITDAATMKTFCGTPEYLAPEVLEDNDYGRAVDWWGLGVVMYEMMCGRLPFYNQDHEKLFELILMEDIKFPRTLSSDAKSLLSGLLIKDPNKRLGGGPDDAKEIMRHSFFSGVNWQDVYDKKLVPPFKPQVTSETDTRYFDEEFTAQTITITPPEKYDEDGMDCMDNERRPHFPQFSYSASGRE
Description: Assays were carried out in a mixture of 100 mM HEPES 7.5, 10 mM MgCl2, 25 mM NaCl, 1 mM DTT and 3% DMSO. Final substrate concentrations in the assay were 170 μM ATP (Sigma Chemicals) and 200 μM peptide (RPRAATF, American Peptide, Sunnyvale, Calif.). Assays were carried out at 30° C. and 45 nM AKT. Final concentrations of the components of the coupled enzyme system were 2.5 mM phosphoenolpyruvate, 300 μM NADH, 30 μg/ML pyruvate kinase and 10 μg/ml lactate dehydrogenase.
An assay stock buffer solution was prepared containing all of the reagents listed above, with the exception of AKT, DTT, and the test compound of interest. 55 μl of the stock solution was placed in a 96 well plate followed by addition of 2 μl of 1 mM DMSO stock containing the test compound (final compound concentration 30 μM). The plate was pre-incubated for about 10 minutes at 30° C. and the reaction initiated by addition of 10 μl of enzyme (final concentration 45 nM) and 1 mM DTF. Rates of reaction were obtained using a Molecular Devices SpectraMax Plus plate reader over a 15 minute read time at 30° C.

SMILES	Ki [1] [nM]	Ki [2]	Ki [3] [nM]
CCc1ccc(C(=O)Nc2n[nH]c3ccc(NC(=O)C(CCN)c4ccc(Cl)c(Cl)c4)cc23)cc1 (stereo not drawn) [Compound I-187]	< 1000	1000 to 3000 nM	< 1000
CCCc1ccc(C(=O)Nc2n[nH]c3ccc(NC(=O)C(CCN)c4ccc(Cl)c(Cl)c4)cc23)cc1 (stereo not drawn) [Compound I-188]	< 1000	1000 to 3000 nM	< 1000
NCCC(C(=O)Nc1ccc2[nH]nc(NC(=O)c3ccc(Br)cc3)c2c1)c1ccc(Cl)c(Cl)c1 (stereo not drawn) [Compound I-189]	< 1000	< 1000 nM	< 1000
NCCC(C(=O)Nc1ccc2[nH]nc(NC(=O)c3ccncc3)c2c1)c1ccc(Cl)c(Cl)c1 (stereo not drawn) [Compound I-193]	< 1000	< 1000 nM	< 1000
NCCC(C(=O)Nc1ccc2[nH]nc(NC(=O)c3cccnc3)c2c1)c1ccc(Cl)c(Cl)c1 (stereo not drawn) [Compound I-194]	< 1000	< 1000 nM	< 1000
NCCC(C(=O)Nc1ccc2[nH]nc(NC(=O)c3ccccn3)c2c1)c1ccc(Cl)c(Cl)c1 (stereo not drawn) [Compound I-195]	< 1000	< 1000 nM	< 1000
C=Cc1cccc(C(=O)Nc2n[nH]c3ccc(NC(=O)C(CCN)c4ccc(Cl)c(Cl)c4)cc23)c1 (stereo not drawn) [Compound I-196]	< 1000	> 3000 nM	< 1000
NCCC(C(=O)Nc1ccc2[nH]nc(NC(=O)c3cccc(CN)c3)c2c1)c1ccc(Cl)c(Cl)c1 (stereo not drawn) [Compound I-197]	< 1000	< 1000 nM	< 1000
NCCC(C(=O)Nc1ccc2[nH]nc(NC(=O)c3ccc(CN)cc3)c2c1)c1ccc(Cl)c(Cl)c1 (stereo not drawn) [Compound I-198]	< 1000	< 1000 nM	< 1000
NCCC(C(=O)Nc1ccc2[nH]nc(NC(=O)c3ccc(Oc4ccccc4)cc3)c2c1)c1ccc(Cl)c(Cl)c1 (stereo not drawn) [Compound I-199]	< 1000	1000 to 3000 nM	< 1000
NCCC(C(=O)Nc1ccc2[nH]nc(NC(=O)c3cccc(C(F)(F)F)c3)c2c1)c1ccc(Cl)c(Cl)c1 (stereo not drawn) [Compound I-200]	< 1000	> 3000 nM	< 1000
NCCC(C(=O)Nc1ccc2[nH]nc(NC(=O)c3cc(F)cc(F)c3)c2c1)c1ccc(Cl)c(Cl)c1 (stereo not drawn) [Compound I-201]	< 1000	> 3000 nM	< 1000
NCCC(C(=O)Nc1ccc2[nH]nc(NC(=O)c3cc(C(F)(F)F)cc(C(F)(F)F)c3)c2c1)c1ccc(Cl)c(Cl)c1 (stereo not drawn) [Compound I-202]	1000 to 5000	> 3000 nM	< 1000
NCCC(C(=O)Nc1ccc2[nH]nc(NC(=O)c3cc(F)cc(C(F)(F)F)c3)c2c1)c1ccc(Cl)c(Cl)c1 (stereo not drawn) [Compound I-203]	< 1000	> 3000 nM	< 1000
NCCC(C(=O)Nc1ccc2[nH]nc(NC(=O)c3cccc(OC(F)(F)F)c3)c2c1)c1ccc(Cl)c(Cl)c1 (stereo not drawn) [Compound I-204]	< 1000	> 3000 nM	< 1000
CNc1ccc(C(=O)Nc2n[nH]c3ccc(NC(=O)C(CCN)c4ccc(Cl)c(Cl)c4)cc23)cc1 (stereo not drawn) [Compound I-206]	< 1000	< 1000 nM	< 1000
CCNc1ccc(C(=O)Nc2n[nH]c3ccc(NC(=O)C(CCN)c4ccc(Cl)c(Cl)c4)cc23)cc1 (stereo not drawn) [Compound I-207]	< 1000	< 1000 nM	< 1000

SMILES	Ki [1] [nM]	Ki [2]	Ki [3] [nM]
CN(C)CCC(C(=O)Nc1ccc2[nH]ncc2c1)c1ccc(Cl)c(Cl)c1 (stereo not drawn) [Compound I-226]	< 1000	> 3000 nM	< 1000
CN(C)CC(C(=O)Nc1ccc2[nH]ncc2c1)c1ccc(Cl)c(Cl)c1 (stereo not drawn) [Compound I-227]	< 1000	> 3000 nM	< 1000
NCC(C(=O)Nc1ccc2[nH]nc(-c3ccccc3)c2c1)c1ccc(Cl)c(Cl)c1 (stereo not drawn) [Compound I-231]	< 1000	< 1000 nM	< 1000
N#Cc1cccc(Nc2n[nH]c3ccc(NC(=O)C(CN)c4ccc(Cl)c(Cl)c4)cc23)c1 (stereo not drawn) [Compound I-232]	< 1000	> 3000 nM	< 1000
Cc1n[nH]c2ccc(NC(=O)C(CN)c3ccc(Cl)c(Cl)c3)cc12 (stereo not drawn) [Compound I-233]	< 1000	1000 to 3000 nM and > 3000 nM	< 1000
NCCC(C(=O)Nc1ccc2[nH]nc(-c3ccc(F)cc3)c2c1)c1ccc(Cl)c(Cl)c1 (stereo not drawn) [Compound I-234]	< 1000	< 1000 nM	< 1000
COC(=O)c1ccc(-c2n[nH]c3ccc(NC(=O)C(CCN)c4ccccc4)cc23)cc1 (stereo not drawn) [Compound I-235]	< 1000	< 1000 nM	1000 to 10000
NCCC(C(=O)Nc1ccc2[nH]nc(-c3ccc(-c4ccccc4)cc3)c2c1)c1ccccc1 (stereo not drawn) [Compound I-236]	< 1000	< 1000 nM	1000 to 10000
NCC(C(=O)Nc1ccc2[nH]ncc2c1)c1ccc(Cl)cc1 (stereo not drawn) [Compound I-242]	< 1000	< 1000 nM	< 1000
NC[C@@H](C(=O)Nc1ccc2[nH]ncc2c1)c1ccc(Cl)c(Cl)c1 [Compound I-247]	< 1000	> 3000 nM	< 1000
NCCC(C(=O)Nc1ccc2[nH]ncc2c1)c1cccc(OCc2ccccc2)c1 (stereo not drawn) [Compound I-1006]	< 1000	< 1000 nM	< 1000
NCCC(C(=O)Nc1ccc2[nH]nc(-c3ccccc3)c2c1)c1ccccc1 (stereo not drawn) [Compound I-1028]	< 1000	< 1000 nM	1000 to 10000
NCCC(C(=O)Nc1ccc2[nH]nc(Nc3cccc(F)c3)c2c1)c1ccccc1 (stereo not drawn) [Compound I-1039]	< 1000	> 3000 nM	1000 to 10000
NCCC(C(=O)Nc1ccc2[nH]nc(NC(=O)c3ccco3)c2c1)c1ccccc1 (stereo not drawn) [Compound I-1041]	< 1000	< 1000 nM	1000 to 10000
NCCC(C(=O)Nc1ccc2[nH]nc(NC(=O)c3cccs3)c2c1)c1ccccc1 (stereo not drawn) [Compound I-1043]	< 1000	< 1000 nM	< 1000
NCC[C@H](C(=O)Nc1ccc2[nH]nc(NC(=O)c3cccs3)c2c1)c1ccccc1 [Compound I-1044]	< 1000	< 1000 nM	< 1000
NCC[C@H](C(=O)Nc1ccc2[nH]nc(-c3ccccc3)c2c1)c1ccccc1 [Compound I-1053]	1000 to 5000	< 1000 nM	10000 to 20000
